Marks after values point to notes of the source that are not given here.

In series [1] the target is T1, δ opioid receptor (Mus musculus, UniProt P32300).
T1 construct: In the assays for the μ and δ receptors, the mouse cerebrum membrane fraction was used; from tissue; host or cells: mouse cerebrum membrane fraction
The series can be described thus: Opioid receptor binding test, [3H]DPDPE, mouse cerebrum membrane fraction. The note with it: read-out: Binding affinity (Ki, nM) δ. As for the experimental part:
(§1) Binding affinities of the compounds of the present invention to the μ, δ, and κ opioid receptors were examined.
(§2) According to a previous report (J. Biol. Chem., 2001, 276:15409-15414), mouse cerebrum and guinea pig cerebellum membrane fractions were prepared. As radioactive ligands for the opioid receptors, [^3H]DAMGO (μ opioid receptor), [^3H]DPDPE (δ opioid receptor), and [3H]U69,593 (κ opioid receptor) were used. In the assays for the μ and δ receptors, the mouse cerebrum membrane fraction was used, and in the assay for the κ receptor, guinea pig cerebellum membrane fraction was used. For the nonspecific binding, DAMGO, DPDPE, and U69,593 were used at 1 μM for μ, δ and κ receptors, respectively. Each receptor membrane fraction, radioactive ligand, and a sample at various concentrations were reacted for a predetermined time, and after the B/F separation, amount of radioactivity remained on the filter was measured with a liquid scintillation counter, and binding inhibition ratio of the test compound (IC50 value) was calculated. Ki value was calculated by using the resulting IC50 value in accordance with the following equation. Ki=IC50/(1+L/Kd) L: Concentration of radioactive ligand used Kd: Kd value of radioactive ligand
(§3) Further, selectivity for the δ receptor among the opioid receptors was determined by calculating ratio of the Ki value for μ or κ, and the Ki value for δ (μ/δ or κ/δ).
(§4) • [D-Ala^2,N-MePhe^4, Gly-Ol]enkephalin DPDPE: • [D-Pen^2,D-Pen^5]enkephalin

The target in series [2] is T2, μ opioid receptor (Mus musculus, UniProt P42866).
T2 construct: In the assays for the μ and δ receptors, the mouse cerebrum membrane fraction was used; from tissue; host or cells: mouse cerebrum membrane fraction
T2 sequence (P42866 whole entry): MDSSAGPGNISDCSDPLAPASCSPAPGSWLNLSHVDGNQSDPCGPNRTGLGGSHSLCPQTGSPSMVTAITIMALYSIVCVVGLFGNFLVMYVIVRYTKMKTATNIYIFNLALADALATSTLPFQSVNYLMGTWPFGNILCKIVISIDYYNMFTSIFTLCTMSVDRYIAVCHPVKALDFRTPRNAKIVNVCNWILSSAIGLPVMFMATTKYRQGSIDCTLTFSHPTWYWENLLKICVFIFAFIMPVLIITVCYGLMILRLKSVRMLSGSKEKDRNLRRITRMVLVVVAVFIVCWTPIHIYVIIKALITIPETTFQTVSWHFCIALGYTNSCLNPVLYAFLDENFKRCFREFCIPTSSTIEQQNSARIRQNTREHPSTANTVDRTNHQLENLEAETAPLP
The series can be described thus: Opioid receptor binding test, [3H]DAMGO, mouse cerebrum membrane fraction. The following applies: ratio of Ki for μ to Ki for δ. As for the experimental part:
as §1, §2, §3, §4

Series [3] addresses T3, κ opioid receptor (Cavia porcellus, UniProt P41144).
T3 construct: in the assay for the κ receptor, guinea pig cerebellum membrane fraction was used; from tissue; host or cells: guinea pig cerebellum membrane fraction
As to the kind of experiment: Opioid receptor binding test, [3H]U69,593, guinea pig cerebellum membrane fraction. The note with it: ratio of Ki for κ to Ki for δ. As for the experimental part:
as §1, §2, §3

Series [4] addresses T4, human opioid receptor δ (Homo sapiens, UniProt P41143).
T4 construct: host or cells: CHO cells
As to the kind of experiment: Opioid receptor function test (Lance Ultra cAMP Kit), δ receptor. In kind it is cell-based. The following applies: for EC50: agonistic activity, human δ receptor-expressing CHO cells, cAMP, forskolin; for Emax: maximum reaction relative to SNC 80 taken as 100%. As for the experimental part:
(§5) Functional activities of the compounds of the present invention on the μ, δ, and κ opioid receptors were examined.
(§6) The test was performed by using Lance Ultra cAMP Kit (Perkin-Elmer) according the prescribed method. In the evaluation of the agonistic activity, each human opioid receptor (δ, μ, and κ, accession numbers and catalog numbers are mentioned below)-expressing CHO cells and 10 μM of a test compound were reacted for 30 minutes in the presence of forskolin in an assay buffer (1×HBSS, […], pH 7.4, […] (isobutylmethylxanthine), 7.5% BSA). The cAMP detection reagent included in the kit was then added, and 1 hour afterward, time decomposition fluorometry was performed by using EnVision plate reader (Perkin-Elmer). […] The Emax value was calculated as a ratio of the maximum reaction of the test compound based on the maximum reaction of each control drug, which was taken as 100%.
(§7) • (+)-4-[(αR)-α-(2S,5R)-4-Allyl-2,5-dimethyl-1-piperazinyl]-3-methoxybenzyl]-N,N-diethylbenzamide DAMGO: • [D-Ala^2,N-MePhe^4,Gly-ol]enkephalin U-69593: • (+)-(5α,7α,8β)-N-Methyl-N-[7-(1-pyrrolidinyl)-1-oxaspiro[4.5]dec-8-yl]benzeneacetamide Accession Numbers and Catalog Numbers δ: Catalog No. CT4607, accession No. NM_000911.2 μ: Catalog No. CT4605, accession No. NM_000914 κ: Catalog No. CT4606, accession No. NM_000912 (ChanTest Corporation)

Series [5] has as its target T5, human opioid receptor κ (Homo sapiens, UniProt P41145).
T5 construct: host or cells: CHO cells
As to the kind of experiment: Opioid receptor function test (Lance Ultra cAMP Kit), κ receptor. The following applies: for κ Receptor reaction ratio at the maximum concentration (reference value): 10 μM, maximum reaction not attained, U-69593 = 100%; for EC50: agonistic activity, human κ receptor-expressing CHO cells, cAMP, forskolin; for Emax: maximum reaction relative to U-69593 taken as 100%. Format: cell-based. The protocol:
as §5, §6, §7

The target of series [6] is T6, human opioid receptor μ (Homo sapiens, UniProt P35372).
T6 construct: host or cells: CHO cells
T6 sequence (P35372 whole entry): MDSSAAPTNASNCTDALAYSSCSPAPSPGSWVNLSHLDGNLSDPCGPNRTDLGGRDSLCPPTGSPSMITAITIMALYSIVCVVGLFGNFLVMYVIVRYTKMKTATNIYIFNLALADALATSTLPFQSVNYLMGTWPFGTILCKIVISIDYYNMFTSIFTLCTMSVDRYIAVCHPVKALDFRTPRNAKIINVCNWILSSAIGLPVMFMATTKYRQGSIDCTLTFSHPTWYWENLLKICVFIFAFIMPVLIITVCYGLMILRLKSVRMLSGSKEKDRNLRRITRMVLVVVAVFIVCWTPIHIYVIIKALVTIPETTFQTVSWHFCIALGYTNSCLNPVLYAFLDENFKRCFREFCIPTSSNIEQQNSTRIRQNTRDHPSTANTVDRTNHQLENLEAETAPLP
As to the kind of experiment: Opioid receptor function test (Lance Ultra cAMP Kit), μ receptor. Format: cell-based. The note with it: for EC50: agonistic activity, human μ receptor-expressing CHO cells, cAMP, forskolin; for Emax: maximum reaction relative to DAMGO taken as 100%; for μ Receptor reaction ratio at the maximum concentration (reference value): 10 μM, maximum reaction not attained, DAMGO = 100%. The protocol: as §5, §6, §7

The target in series [7] is T7, hERG channel (Homo sapiens, UniProt Q12809).
T7 construct: expressed in transfected cells; host or cells: CHO-K1 cells
T7 sequence (Q12809 whole entry): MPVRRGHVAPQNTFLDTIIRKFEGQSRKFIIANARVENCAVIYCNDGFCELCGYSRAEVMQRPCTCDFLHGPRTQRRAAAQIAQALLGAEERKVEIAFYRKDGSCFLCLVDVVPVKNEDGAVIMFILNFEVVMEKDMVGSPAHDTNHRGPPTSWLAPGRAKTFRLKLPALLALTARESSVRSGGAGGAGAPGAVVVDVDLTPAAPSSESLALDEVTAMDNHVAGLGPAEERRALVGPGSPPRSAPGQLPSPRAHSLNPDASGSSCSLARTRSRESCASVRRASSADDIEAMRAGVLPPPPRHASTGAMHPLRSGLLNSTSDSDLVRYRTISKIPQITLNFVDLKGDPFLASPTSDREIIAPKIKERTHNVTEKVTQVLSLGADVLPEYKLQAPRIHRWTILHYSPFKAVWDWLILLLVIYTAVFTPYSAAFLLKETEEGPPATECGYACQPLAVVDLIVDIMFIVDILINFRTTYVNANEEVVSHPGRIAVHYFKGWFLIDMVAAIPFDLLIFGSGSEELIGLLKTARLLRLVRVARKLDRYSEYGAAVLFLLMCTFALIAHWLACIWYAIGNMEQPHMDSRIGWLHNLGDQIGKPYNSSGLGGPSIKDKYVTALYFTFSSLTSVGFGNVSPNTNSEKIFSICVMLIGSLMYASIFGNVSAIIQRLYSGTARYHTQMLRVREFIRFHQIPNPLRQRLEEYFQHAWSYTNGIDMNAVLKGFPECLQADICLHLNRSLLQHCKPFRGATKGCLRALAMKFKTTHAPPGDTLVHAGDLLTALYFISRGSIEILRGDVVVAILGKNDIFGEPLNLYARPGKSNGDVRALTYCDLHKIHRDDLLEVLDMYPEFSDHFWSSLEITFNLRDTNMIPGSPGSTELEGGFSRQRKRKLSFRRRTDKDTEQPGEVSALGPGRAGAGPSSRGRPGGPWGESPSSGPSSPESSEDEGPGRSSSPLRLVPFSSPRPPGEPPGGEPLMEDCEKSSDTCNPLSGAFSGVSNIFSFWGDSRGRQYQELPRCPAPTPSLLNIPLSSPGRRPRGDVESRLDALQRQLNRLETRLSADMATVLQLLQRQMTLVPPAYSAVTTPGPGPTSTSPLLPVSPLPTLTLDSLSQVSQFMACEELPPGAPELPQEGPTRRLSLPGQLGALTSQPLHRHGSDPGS
As to the kind of experiment: hERG potassium channel inhibition test (Qpatch16 patch clamp, CHO-K1 cells). In kind it is cell-based. The note with it: 10 μM; tail current inhibition, hERG-expressing CHO-K1 cells. As for the experimental part:
The test was performed with Qpatch16 (Sophion Biosciences Inc.) full automatic patch clamp system using hERG channel-stably expressing CHO-K1 cells. The hERG channel inhibitory action of each test compound was obtained on the basis of inhibitory action against a tail current induced by a test pulse at […] for 1 second applied after retention at +20 mV for 2 seconds. The test compound was dissolved in an extracellular fluid (137 mM NaCl, 4 mM KCl, 1.8 mM CaCl2, 1 mM MgCl2, 10 mM D(+)-glucose, 10 mM HEPES, pH 7.4), and the solution was […] at room temperature for 5 minutes. The inhibition ratio was obtained from the ratio of the tail current value observed after the compound was applied based on the tail current value observed before the compound was applied, which was taken as 100%. Cells were used for the test, where the cells show a peak tail current value not smaller than 100 pA, tail current run-down smaller than 30% of the initial current value, leak current smaller than 50% of the peak value of the tail current, and series resistance value lower than 20 MΩ.
(In general: The hERG channel carries a current that helps repolarise heart muscle cells.)

T4 sequence (P41143 whole entry): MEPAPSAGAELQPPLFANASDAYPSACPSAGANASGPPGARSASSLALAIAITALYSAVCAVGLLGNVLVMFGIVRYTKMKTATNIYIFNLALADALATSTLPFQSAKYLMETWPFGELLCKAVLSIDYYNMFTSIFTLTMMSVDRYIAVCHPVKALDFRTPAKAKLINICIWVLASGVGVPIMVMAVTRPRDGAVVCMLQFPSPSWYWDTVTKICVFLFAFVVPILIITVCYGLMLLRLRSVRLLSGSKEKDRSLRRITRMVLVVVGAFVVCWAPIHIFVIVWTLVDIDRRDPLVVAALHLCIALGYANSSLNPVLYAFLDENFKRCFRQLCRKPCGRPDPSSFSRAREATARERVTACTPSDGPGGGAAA
T5 sequence (P41145 whole entry): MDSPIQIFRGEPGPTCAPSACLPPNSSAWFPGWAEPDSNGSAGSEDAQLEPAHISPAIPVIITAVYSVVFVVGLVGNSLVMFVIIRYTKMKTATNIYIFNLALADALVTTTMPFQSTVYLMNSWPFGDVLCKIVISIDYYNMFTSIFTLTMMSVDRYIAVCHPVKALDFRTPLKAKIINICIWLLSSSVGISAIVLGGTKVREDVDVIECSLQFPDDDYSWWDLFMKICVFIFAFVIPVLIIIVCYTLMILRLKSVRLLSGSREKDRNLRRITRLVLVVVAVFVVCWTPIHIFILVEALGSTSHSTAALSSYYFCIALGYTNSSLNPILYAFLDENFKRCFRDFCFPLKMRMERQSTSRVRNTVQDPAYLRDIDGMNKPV
T3 sequence (P41144 whole entry): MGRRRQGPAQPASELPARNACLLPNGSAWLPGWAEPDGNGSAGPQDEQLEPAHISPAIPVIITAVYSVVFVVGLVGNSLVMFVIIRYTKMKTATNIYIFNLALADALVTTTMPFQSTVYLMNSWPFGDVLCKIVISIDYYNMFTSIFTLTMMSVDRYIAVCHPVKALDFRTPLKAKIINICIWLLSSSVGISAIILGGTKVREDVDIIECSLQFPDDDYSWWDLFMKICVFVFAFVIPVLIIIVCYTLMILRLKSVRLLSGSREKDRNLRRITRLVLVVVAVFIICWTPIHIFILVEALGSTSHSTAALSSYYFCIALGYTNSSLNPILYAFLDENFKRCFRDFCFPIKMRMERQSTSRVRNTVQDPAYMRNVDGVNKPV
T1 sequence (P32300 whole entry): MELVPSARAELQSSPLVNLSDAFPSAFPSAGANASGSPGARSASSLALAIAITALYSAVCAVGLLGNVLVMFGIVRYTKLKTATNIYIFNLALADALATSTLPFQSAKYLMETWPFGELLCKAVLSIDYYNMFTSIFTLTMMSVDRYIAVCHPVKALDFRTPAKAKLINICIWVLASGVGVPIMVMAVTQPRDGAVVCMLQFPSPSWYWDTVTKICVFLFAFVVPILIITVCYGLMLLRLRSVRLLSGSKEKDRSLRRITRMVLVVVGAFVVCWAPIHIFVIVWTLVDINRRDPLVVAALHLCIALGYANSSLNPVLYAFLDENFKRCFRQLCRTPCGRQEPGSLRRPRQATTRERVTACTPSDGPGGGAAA

Turning to `O=C(c1ccccc1)N1C[C@H]2CC34CCC1C2C31CCN(C[C@@H]2CCCCN2)C4Cc2ccc(O)cc21` (stereo partly shown) [Compound 47], the Ki in series [1] is less than 10 nM. Also, in series [2], the “δ-receptor selectivity (Ki value ratio) μ/δ” value was more than 10. Further, the “δ-receptor selectivity (Ki value ratio) κ/δ” value in series [3] is more than 10.

Take `NCCCN1CCC23c4cc(O)ccc4CC1C21CCC2C3[C@@H](CN2C(=O)c2cccc3ccccc23)C1` (stereo partly shown) [Compound 55]: the values for the EC50 in series [4] and in series [6] were less than 1 nM and more than 10 nM, respectively. Besides, the Emax in series [4] worked out at 102%; in series [6] it was 82%. In addition, in series [5], the “κ Receptor reaction ratio at the maximum concentration (reference value)” value (from here on “κ Receptor reaction ratio”) is given as “(4.8)^a %”.

In series [4], `NCCCN1CCC23c4cc(O)ccc4CC1C21CCC2C3[C@@H](CN2C(=O)c2ccccc2)C1` (stereo partly shown) [Compound 41] yielded an EC50 of less than 1 nM and an Emax of 103%. For the same molecule, in series [5], the “κ Receptor reaction ratio” value is “(15)^a %”. In addition, in series [6], the EC50 is more than 100 nM and the Emax was found to be 97%.

In series [4], `NCC(O)CN1CC[C@@]23c4cc(O)ccc4C[C@@H]1[C@]21CC[C@@H]2[C@H]3[C@@H](CN2C(=O)c2ccccc2)C1` (single isomer, unassigned) [Compound 62a] returned an EC50 of less than 1 nM and an Emax of 108%. For the same molecule, the “κ Receptor reaction ratio” value in series [5] is “(1.7)^a %”. For the same molecule, in series [6], the EC50 was more than 100 nM and the maximal response (Emax) was 106%.

For `CN(C)CCN1CCC23c4cc(O)ccc4CC1C21CCC2C3[C@@H](CN2C(=O)c2ccccc2)C1` (stereo partly shown) [Compound 40], the EC50 in series [4] is less than 1 nM; in series [5], more than 10 nM; in series [6], more than 10 nM. In addition, the Emax in series [4] came to 104%; in series [5], 22%; in series [6] it was 92%.

For `N[C@@H](CO)CN1CC[C@@]23c4cc(O)ccc4C[C@@H]1[C@]21CC[C@@H]2[C@H]3[C@@H](CN2C(=O)c2ccccc2)C1` [Compound 64, [(1S,3aR,5aS,6R,11bR,11cS)-14-[(2R)-2-amino-3-hydroxypropyl]-10-hydroxy-1,2,3a,4,5,6,7,11c-octahydro-3H-6,11b-(epiminoethano)-1,5a-methanonaphtho[1,2-e]indol-3-yl](phenyl)methanone], in series [4], the EC50 is less than 1 nM and the maximum response (Emax) came out at 105%. For the same molecule, the “HERG channel inhibitory action” value in series [7] is recorded as less than 50%. For the same molecule, the “κ Receptor reaction ratio” value in series [5] is recorded as “(9.0)^a %”. For the same molecule, in series [6], the “μ Receptor reaction ratio at the maximum concentration (reference value)” value is reported as “(60)^a %”.

Take `Cc1cc(C)nc(N2C[C@H]3C[C@@]45CC[C@@H]2[C@@H]3[C@@]42CCN(CCCN)[C@@H]5Cc3ccc(O)cc32)n1` [Compound 76, (1S,3aR,5aS,6R,11bR,11cS)-14-(3-aminopropyl)-3-(4,6-dimethylpyrimidin-2-yl)-2,3,3a,4,5,6,7,11c-octahydro-1H-6,11b-(epiminoethano)-1,5a-methanonaphtho[1,2-e]indol-10-ol]: the “HERG channel inhibitory action” value in series [7] was less than 50%.

For `C[C@H](N)CN1CCC23c4cc(O)ccc4CC1C21CCC2C3[C@@H](CN2C(=O)c2ccccc2)C1` (stereo partly shown) [Compound 43], in series [4], the 50% effective concentration (EC50) is less than 10 nM and the maximal effect (Emax) was 109%. The inhibition constant Ki in series [1] was less than 1 nM. The “δ-receptor selectivity (Ki value ratio) μ/δ” value in series [2] is more than 10. Moreover, in series [3], the “δ-receptor selectivity (Ki value ratio) κ/δ” value is listed as more than 10. Moreover, the “κ Receptor reaction ratio” value in series [5] is reported as “(7.2)^a %”. The “μ Receptor reaction ratio at the maximum concentration (reference value)” value in series [6] is on record as “(8.2)^a %”.

`O=C(c1ccccc1)N1C[C@H]2CC34CCC1C2C31CCN(CC2CNC2)C4Cc2ccc(O)cc21` (stereo partly shown) [Compound 49]: the EC50 in series [4] was less than 1 nM; in series [5], more than 100 nM; in series [6], more than 100 nM. Also, the values for the Emax in series [4], in series [5] and in series [6] were 108%, 28% and 105%, respectively.

Take `Cc1cc(C)nc(N2C[C@H]3C[C@@]45CC[C@@H]2[C@@H]3[C@@]42CCN(CCN(C)C)[C@@H]5Cc3ccc(O)cc32)n1` [Compound 74, (1S,3aR,5aS,6R,11bR,11cS)-14-[2-(dimethylamino)ethyl]-3-(4,6-dimethylpyrimidin-2-yl)-2,3,3a,4,5,6,7,11c-octahydro-1H-6,11b-(epiminoethano)-1,5a-methanonaphtho[1,2-e]indol-10-ol]: the EC50 in series [4] is less than 1 nM; in series [5] it was more than 100 nM; in series [6], more than 10 nM. For the same molecule, the Emax in series [4] amounted to 101%; in series [5] it was 46%; in series [6], 121%.

With `CN1CCC[C@H]1CN1CCC23c4cc(O)ccc4CC1C21CCC2C3[C@@H](CN2C(=O)c2ccccc2)C1` (stereo partly drawn) [Compound 20, [(1S,3aR,5aS,6R,11bR,11cS)-10-hydroxy-14-[[(2S)-11-methylpyrrolidin-2-yl]methyl]-1,2,3a,4,5,6,7,11c-octahydro-3H-6,11b-(epiminoethano)-1,5a-methanonaphtho[1,2-e]indol-3-yl](phenyl)methanone], the EC50 was less than 1 nM in series [4], more than 10 nM in series [5] and more than 100 nM in series [6]. Besides, the Emax in series [4] is 103%; in series [5] it was 17%; in series [6] it was 54%.

On to `O=C(c1ccccc1)N1C[C@H]2C[C@@]34CC[C@@H]1[C@@H]2[C@@]31CCN(C[C@@H]2CCCN2)[C@@H]4Cc2ccc(O)cc21` [Compound 19, [(1S,3aR,5aS,6R,11bR,11cS)-10-hydroxy-14-[[(2S)-pyrrolidin-2-yl]methyl]-1,2,3a,4,5,6,7,11c-octahydro-3H-6,11b-(epiminoethano)-1,5a-methanonaphtho[1,2-e]indol-3-yl](phenyl)methanone], for which, in series [4], the EC50 was less than 10 nM and the Emax came to 106%. Further, the “HERG channel inhibitory action” value in series [7] was less than 50%. In series [5], the “κ Receptor reaction ratio” value is given as “(2.6)^a %”. Moreover, in series [6], the 50% effective concentration (EC50) is more than 100 nM and the Emax turned out to be 27%.

In general, Ki refers to a measure of affinity in units of concentration, obtained from inhibition or displacement. One may read the EC50 as the concentration at which the effect is half-maximal. A higher EC50 goes with lower potency in that assay. By Emax is commonly meant the maximal effect, on the per cent scale that the assay sets.

Source of the values: patent US9624223B2, “Morphinan derivative” (THE KITASATO INSTITUTE, priority 2013, dated 2017).
